Measured values as given in PMC7738871, “Covalent modification of Keap1 at Cys77 and Cys434 by pubescenoside a suppresses oxidative stress-induced NLRP3 inflammasome activation in myocardial ischemia-reperfusion injury” (Theranostics, 2021).
“Also recorded” adds a separate entry of the source.

What was measured:
Keap1 C226S = biological target: T1, Keap1 C226S (Homo sapiens, UniProt Q14145, C226S); experiment: ITC titration of PBA with Keap1-C226S; type: binding; conditions: 25 ℃
T1 construct: His (N); made in house; host or cells: E. coli BL21 (DE3)
Experimental: The Keap1 was amplified by PCR using a human cDNA library, and was subcloned into the vector pET28-TEV, which contained one tobacco etch virus (TEV) protease cleavage site at the upstream multiple cloning site. The protein was expressed in E. coli BL21 (DE3) cells and incubated at 37 °C until the OD600 value reached 0.6, using 0.2 mM isopropyl β-D-1-thiogalactopyranoside (IPTG) overnight induction at 18 °C. The cells were isolated by centrifugation, resuspended in ice-cold lysis buffer and lysed by cryogenic overpressure cell breaker at 1,200 psi. The lysates were centrifuged for 60 min at 14,000 rpm to obtain the supernatant. Gravity flow purification of Keap1 protein was obtained at room temperature using 1 mL of Ni-NTA and eluted in buffer containing 250 mM imidazole, followed by 1 mL of HiTrap QHP for the second step purification. The final protein was purified and validated by Superdex 200 10/300GL resin.
The mutant plasmid DNA was obtained by PCR. The PCR products were cleaved by DpnI restriction enzymes. The restriction endonuclease-cleaved mixture was subsequently transformed into E. coli DH5α. Colonies were evaluated by colony PCR and sequenced. The mutant plasmid was transformed into E. coli BL21 (DE3) after successful sequencing. The steps for expression and purification of all recombinants were described above.
Isothermal calorimetry (ITC) titration experiments were performed at 25 °C. WT Keap1, Keap1 mutants and PBA were dissolved in binding buffer (40 mM Tris-HCl pH 8.0, 250 mM NaCl). In a typical experiment, 60 μL of PBA (1 mM) was injected 19 times at 2-min intervals from a stirring syringe into the sample cell containing 300 μL of WT protein or mutants (30 μM). The first injection was 0.4 μL of PBA, and the subsequent 18 injections were 2 μL each time. The site-binding models were determined by using MicroCal Origin software.

[1] = tested on: Keap1-dependent Nrf2 ubiquitination; experiment: Keap1-dependent Nrf2 ubiquitination in 293T cells; type: cell-based, human
Experimental: Alkylation of the BTB domain of Keap1 by covalent modifiers contributes to the disruption of the Keap1-Cul3 interactions, leading to Nrf2 activation. Next, we investigated the effect of PBA on the modulation of Nrf2 ubiquitination as Nrf2 stability is controlled by ubiquitin-mediated proteasomal degradation. First, 3X Flag-Keap1, Myc-Nrf2 and Ub plasmids were transfected into 293T cells and then, the cells were treated with 30 μM PBA for 20 h and 5 μM MG132 for another 4 h. Cell lysates were pulled down using anti-Myc beads, and immunopurified Nrf2 was examined for the occurrence of Ub by western blotting. […] As shown in Figure 6E-F, PBA could disrupt the interaction of Keap1 and Cul3 in WT-Keap1 cells, while the disruption was blocked in the Cys77S and Cys434-Keap1 mutant cells.
(§1) Figure 6 PBA suppresses Keap1-mediated ubiquitination of Nrf2 by disrupting the interaction between Cul3 and Keap1. (A and B) PBA suppressed Nrf2 ubiquitination in a Keap1-Cys77 and C434-dependent manner. First, 293T cells were transfected with WT-Keap1 or C77S and C434S-Keap1, Myc-Nrf2, and Ub plasmids for 24 h and treated with 30 μM PBA. The cell lysates were immunoprecipitated using anti-Myc beads, and the ubiquitination level was evaluated using the anti-Ub antibody. (C and D) PBA induced the dissociation of the Nrf2-Keap1 complex. Then, 293T cells were cotransfected with WT-Keap1 and Flag-Nrf2 plasmids for 24 h and treated with 30 μM PBA for 12 h. The cell lysates were immunoprecipitated with the anti-Flag antibody, and the level of Nrf2 was assessed using the anti-Nrf2 antibody. (E and F) PBA disrupted the interaction between Cul3 and Keap1. […] The cell lysates were immunoprecipitated with the anti-Flag antibody, and the level of Cul3 was measured using the anti-Cul3 antibody. #p < 0.05, ##p < 0.01, ###p < 0.001, the control vs DMSO; *p < 0.05,**p < 0.01, ***p < 0.001, PBA or tBHQ vs DMSO. […] Cell viability was measured by MTT assays. #p < 0.05, ###p < 0.001, the control vs OGD/R; **p < 0.01, ***p < 0.001, OGD/R+PBA vs OGD/R.

[2] = tested on: primary mouse cardiomyocytes transfected with C77S and C434S-Keap1; experiment: OGD/R viability in Keap1-mutant-transfected primary cardiomyocytes; type: cell-based; conditions: Cys77S and Cys434S-Keap1 mutant vectors, MTT
Experimental: as §1
Cell viability was determined by MTT assays. […] And the solution was measured at the absorbance of 490 nm by a spectrophotometer (Thermo Fisher Scientific, MA, USA). […]

[3] = tested on: T2, interaction between Keap1 and Nrf2; experiment: Co-IP of Keap1 and Nrf2 in 293T cells; type: cell-based, human
T2 construct: expressed in transfected cells; host or cells: 293T
Experimental: Figure 6 PBA suppresses Keap1-mediated ubiquitination of Nrf2 by disrupting the interaction between Cul3 and Keap1. (A and B) PBA suppressed Nrf2 ubiquitination in a Keap1-Cys77 and C434-dependent manner. First, 293T cells were transfected with WT-Keap1 or C77S and C434S-Keap1, Myc-Nrf2, and Ub plasmids for 24 h and treated with 30 μM PBA. The cell lysates were immunoprecipitated using anti-Myc beads, and the ubiquitination level was evaluated using the anti-Ub antibody. (C and D) PBA induced the dissociation of the Nrf2-Keap1 complex. Then, 293T cells were cotransfected with WT-Keap1 and Flag-Nrf2 plasmids for 24 h and treated with 30 μM PBA for 12 h. The cell lysates were immunoprecipitated with the anti-Flag antibody, and the level of Nrf2 was assessed using the anti-Nrf2 antibody. (E and F) PBA disrupted the interaction between Cul3 and Keap1. The 293T cells were transfected with the WT-Keap1 or C77S-C434S-Keap1 plasmids for 24 h and treated with 30 μM PBA for 12 h. The cell lysates were immunoprecipitated with the anti-Flag antibody, and the level of Cul3 was measured using the anti-Cul3 antibody. #p < 0.05, ##p < 0.01, ###p < 0.001, the control vs DMSO; *p < 0.05,**p < 0.01, ***p < 0.001, PBA or tBHQ vs DMSO. […] Primary mouse cardiomyocytes were transfected with mouse WT-Keap1 or C77S and C434S-Keap1 mutant vectors. After 24 h, the cells were treated with the indicated doses of PBA and subjected to OGD conditions as described in the Method section for 3 h and under normal conditions for another 18 h. Cell viability was measured by MTT assays. #p < 0.05, ###p < 0.001, the control vs OGD/R; **p < 0.01, ***p < 0.001, OGD/R+PBA vs OGD/R.
To investigate the effect of PBA on the interaction of Keap1 and Nrf2, we transfected 293T cells with Flag-Keap1 and Myc-Nrf2 plasmids, and treated them with 30 μM PBA for 24 h. The protein expression of Nrf2 was measured by western blotting analysis followed by immunoprecipitation with Flag beads.

T1 sequence (Q14145 whole entry C226S): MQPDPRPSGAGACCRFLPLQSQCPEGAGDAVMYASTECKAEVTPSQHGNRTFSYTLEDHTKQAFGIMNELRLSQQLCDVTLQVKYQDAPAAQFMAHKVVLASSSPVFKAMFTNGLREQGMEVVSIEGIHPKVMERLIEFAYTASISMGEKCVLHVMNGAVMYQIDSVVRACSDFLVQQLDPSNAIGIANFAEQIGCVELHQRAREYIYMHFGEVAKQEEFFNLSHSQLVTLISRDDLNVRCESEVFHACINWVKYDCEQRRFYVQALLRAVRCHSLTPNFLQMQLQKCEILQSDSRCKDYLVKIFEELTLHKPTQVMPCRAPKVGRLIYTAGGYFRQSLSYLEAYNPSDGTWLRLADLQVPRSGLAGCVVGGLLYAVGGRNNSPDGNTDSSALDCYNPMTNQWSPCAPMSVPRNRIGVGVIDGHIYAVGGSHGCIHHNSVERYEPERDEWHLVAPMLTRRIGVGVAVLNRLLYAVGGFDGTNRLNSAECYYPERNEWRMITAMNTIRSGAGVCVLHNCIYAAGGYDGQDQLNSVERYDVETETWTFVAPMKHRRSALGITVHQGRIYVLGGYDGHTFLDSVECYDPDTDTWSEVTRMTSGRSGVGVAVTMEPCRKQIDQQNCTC

C=C(COC(=O)C=Cc1ccc(O)c(O)c1)C(O)COC1OC(CO)C(O)C(O)C1O (stereo not drawn) [PBA, pubescenoside A]
Kd (Keap1 C226S): 8.12 µM | T△S (Keap1 C226S): 1.84 ± 0.00 kcal/mol | △G (Keap1 C226S): -6.95 ± 0.00 kcal/mol | △H (Keap1 C226S): -5.11 ± 0.279 kcal/mol | Keap1-dependent Nrf2 ubiquitination ([1]; WT Keap1, 30 μM PBA 20 h, 5 μM MG132 4 h): significantly suppressed | protection of Nrf2 from ubiquitination with mutant Keap1 ([1]; mutant Cys77S and Cys434S-Keap1 vectors): unable to protect Nrf2 from ubiquitination | protective effect against OGD/R injury with mutant Keap1 [2]: blocked the protective effect | Keap1-Nrf2 complex with mutant Keap1 (Co-IP) ([3]; Cys77S and Cys434S-Keap1 mutant vectors): unable to block | interaction between Keap1 and Nrf2 (Co-IP) ([3]; WT-Keap1, 30 μM PBA): significantly disturbed; also recorded: disrupted
